Reference: BindingDB's records for patent US11826435 (University of Saskatchewan, 2023)

Target: T1, Lysosomal acid glucosylceramidase (Homo sapiens, UniProt P04062)
T1 sequence (P04062 whole entry): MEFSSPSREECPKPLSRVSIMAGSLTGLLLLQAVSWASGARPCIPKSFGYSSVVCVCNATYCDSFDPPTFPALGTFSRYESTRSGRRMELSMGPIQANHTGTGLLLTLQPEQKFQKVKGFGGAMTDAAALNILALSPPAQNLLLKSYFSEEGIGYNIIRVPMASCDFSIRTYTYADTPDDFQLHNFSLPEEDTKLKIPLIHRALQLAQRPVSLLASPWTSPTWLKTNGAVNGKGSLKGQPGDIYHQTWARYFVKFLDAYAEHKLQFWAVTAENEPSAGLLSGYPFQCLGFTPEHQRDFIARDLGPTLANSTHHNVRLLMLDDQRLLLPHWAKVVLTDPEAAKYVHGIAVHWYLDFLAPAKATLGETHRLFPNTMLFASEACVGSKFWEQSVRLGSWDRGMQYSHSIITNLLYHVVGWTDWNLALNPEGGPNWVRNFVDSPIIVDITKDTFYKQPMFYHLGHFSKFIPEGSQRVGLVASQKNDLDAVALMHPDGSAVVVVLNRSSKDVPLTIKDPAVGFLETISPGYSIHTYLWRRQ
Experiment: Enzyme Kinetics - Measuring Inactivation Rates of Inhibitors
Protocol: Inactivation solutions contained a final concentration of 16.55 nM of Cerezyme (Recombinant GCase) in 200 μL of Reaction Buffer (50 mM acetate, 0.2% v/v Triton X-100, 0.3% w/v sodium taurocholate, pH 5.5). The Cerezyme was collected from leftover patient vials and had approximately 8275 nM in the vial. […] Once the inhibitor was added this was considered time=0 minutes. Meanwhile a 96 well plate inside a Biotek Synergy 4 hybrid multi-mode reader at 37 C. was being incubated. In the wells of the plate were waiting a high concentration ([…]) of 2,4-DNP-β-Glc substrate in 180 μL of Reaction Buffer. As the inhibitor inactivation was occurring, 20 μL aliquots were taken from the inactivation solutions and diluted on the plate containing the substrate bringing the final concentration of the substrate to […]. Once all the aliquots were added the solution in the wells was measured for absorbance at 400 nm for 8 minutes. At this time the measurements were paused and the next set of aliquots were taken to see how residual enzyme activity changes over time.

Structure (SMILES) | IC50 [µM] | Ki [µM]
O=[N+]([O-])c1ccc(OC2O[C@H](CO)[C@@H](O)[C@H](O)[C@H]2F)c([N+](=O)[O-])c1 (some centres not stated) [US11826435, Compound 1.1] | > 1000 | –
O[C@H]1[C@H](O)[C@@H](O)[C@@H]2O[C@@H]2[C@@H]1O [US11826435, Compound 1.2] | – | 140
